Values after ≈ are worked out from the molar mass of the structure shown. Like-named read-outs stand apart in the source and are kept apart here.
Legend:
Type in all cases: cell-based
[1] = test system: P. aeruginosa ATCC 10145; experiment: MIC, laboratory strains (Example 8)
[2] = test system: E. coli D31; experiment: MIC, control bacteria (Example 8)
Method: • Mueller-Hinton Broth in tubes was inoculated with 25 ocular isolates of Staphylococcus aureus fluoroquinolone-susceptible, Staphylococcus aureus fluoroquinolone-resistant, Staphylococcus epidermidis (Coagulase-negative Staphylococcus) fluoroquinolone-susceptible, Staphylococcus epidermidis (Coagulase-negative Staphylococcus) fluoroquinolone-resistant, Pseudomonas aeruginosa and Serratia marcescens, plus two controls (Staphylococcus aureus and E. coli) and incubated at 37° C. overnight on a shaker set at 250 rpm.
Control Bacteria—The two control bacteria (Staphylococcus aureus and E. coli) were treated as above.
Control Bacteria Set #1—this set of control bacteria were treated as the Streptococcus pneumoniae, Streptococcus viridans and Moraxella species (including Moraxella catarrhalis) test isolates above; the control bacteria underwent the same conditions as the test Streptococcus pneumoniae, Streptococcus viridans and Moraxella species (including Moraxella catarrhalis) isolates. This set of control bacteria was to determine whether there was a difference in the MICs by performing the MIC determinations in 2% lysed horse red blood cells with the standard method performed in Mueller-Hinton broth.
Control Bacteria Set #2—the control bacteria were added to 5 ml of Mueller-Hinton Broth without the 2% lysed horse red blood cells to achieve the standard inoculum concentration. This set of control bacteria is the normal control to determine whether the compounds are at the target MICs.
Control Bacteria Set #1—this set of control bacteria were treated as the Haemophilus influenzae test isolates above; the control bacteria underwent the same conditions as the test Haemophilus influenzae isolates. This set of control bacteria is to determine whether there was a difference in the MICs by performing the MIC determinations in HTM broth with the standard method performed in Mueller-Hinton broth.
Control Bacteria Set #2—the control bacteria were added to 5 ml of Mueller-Hinton Broth to achieve the standard inoculum concentration. This set of control bacteria is the normal control to determine whether the compounds are at the target MICs.
(§1) Ninety μl of the bacterial suspensions was dispensed in each well from column 1 to column 12. Each bacterial isolate was placed in one row of a 96 well polypropylene plate containing the test agents. The plates were placed on shaker at 15 minutes at room temperature, and then incubated at 37° C. overnight. MICs were determined visually as the lowest concentration of drug that inhibits visible bacterial growth.

[3] = test system: K. pneumoniae Lab Strain KP10; experiment: MIC, laboratory strains (Example 8)
[4] = test system: Haemophilus influenzae; experiment: MIC, 25 ocular isolates, broth microdilution (Example 8)
Method: HTM (Haemophilus Test Medium) in tubes was inoculated with 25 ocular isolates of Haemophilus influenzae plus two controls (Staphylococcus aureus and E. coli) and incubated at 37° C. overnight. Additionally, Mueller-Hinton Broth in tubes was inoculated with two controls (Staphylococcus aureus and E. coli) and incubated at 37° C. overnight on a shaker set at 250 rpm.
On the day of testing, a 640 μg/ml (1280 μg/ml for Serratia marcescens and Pseudomonas aeruginosa) concentration was prepared from a 1% stock solution in 0.01% acetic acid, 0.2% BSA in polypropylene tubes.
Serial doubling dilutions in 0.01% acetic acid, 0.2% BSA in 96 well polypropylene plates, which are used as reservoirs for the inoculation of the test plates, were carried out to obtain serial dilutions of test agents at 10 times the required test concentrations: 640, 320, 160, 80, 40, 20, 10, 5, 2.5, 1.25, and 0.625 μg/ml (1280, 640, 320, 160, 80, 40, 20, 10, 5, 2.5, and 1.25 μg/ml for Serratia marcescens and Pseudomonas aeruginosa).
Ten μl of diluted 10×test agents was added to each well of one row of the 96 well polypropylene plates from column 2 to column 12 (column 1 is a control for bacteria alone, with no peptide). Test agent concentrations in columns 2-12 were as follows: 64, 32, 16, 8, 4, 2, 1, 0.5, 0.25, 0.125, and 0.0625 μg/ml (128, 64, 32, 16, 8, 4, 2, 1, 0.5, 0.25, and 0.125 μg/ml for Serratia marcescens and Pseudomonas aeruginosa). The same peptide was in each of the 8 rows. One plate contained dilutions of one test agent and 8 bacterial isolates.
On the day of testing, the overnight bacterial broth cultures of Haemophilus species was diluted in 5 ml of trypticase soy broth to yield turbidity equal to a 0.5 McFarland standard. The final inoculum for MIC testing for Haemophilus species was achieved by placing 0.1 ml of the turbidity adjusted sample to 5 ml of HTM medium.
as §1

[5] = Haemophilus influenzae, n=25 isolates, >64 replaced with 128

Compound: N=C(N)NCCCCC(=O)Nc1cc(C(F)(F)F)cc(NC(=O)c2cc(C(=O)Nc3cc(C(F)(F)F)cc(NC(=O)CCCCNC(=N)N)c3O[C@@H]3CCNC3)ncn2)c1O[C@@H]1CCNC1 [Oligomer 4]
- MIC [1]: 12.5 µg/mL (≈ 13.3 µM)
- Decrease of activity by addition of 2% lysed horse red blood cells to Mueller-Hinton broth ([2]; Control Bacteria E. coli D31): approximately 4 fold
- Decrease of activity by use of HTM broth ([2]; Control Bacteria E. coli D31): approximately 8 fold
- MIC ([2]; Control Bacteria Set #1, run with Haemophilus influenzae MIC test, read-out: MIC): 8 µg/mL (≈ 8.54 µM)
- MIC ([2]; E. coli D31, Control for MIC Test SA-FQR, first batch): 1 µg/mL (≈ 1.07 µM)
- MIC ([2]; E. coli D31, Control for MIC Test SA-FQS, first batch): 1 µg/mL (≈ 1.07 µM)
- MIC ([2]; E. coli D31, new batches, Control Only 1): 1 µg/mL (≈ 1.07 µM)
- MIC ([2]; E. coli D31, new batches, Control Only 2): 1 µg/mL (≈ 1.07 µM)
- MIC ([2]; E. coli D31, new batches, Control Only 3): 1 µg/mL (≈ 1.07 µM)
- MIC ([2]; E. coli D31, new batches, Control Only 4): 1 µg/mL (≈ 1.07 µM)
- MIC ([2]; E. coli Lab Strain D31): 0.78 µg/mL (≈ 0.833 µM)
- MIC ([2]; Escherichia coli, D31, Control Bacteria Set #1, run with Moraxella MIC test, read-out: MIC): 4 µg/mL (≈ 4.27 µM)
- MIC ([2]; Escherichia coli, D31, Control Only 1, read-out: MIC of control bacteria on day of MIC testing): 1 µg/mL
- MIC ([2]; Escherichia coli, D31, Control Only 2, read-out: MIC of control bacteria on day of MIC testing): 1 µg/mL
- MIC ([2]; Escherichia coli, D31, Control Only 3, read-out: MIC of control bacteria on day of MIC testing): 1 µg/mL
- MIC ([2]; Escherichia coli, D31, Control Only 4, read-out: MIC of control bacteria on day of MIC testing): 1 µg/mL
- MIC ([2]; Escherichia coli, D31, E. coli D31, Control Bacteria Set #1 (same conditions as test isolates), run with Streptococcus pneumoniae MIC test, read-out: MIC): 2 µg/mL (≈ 2.13 µM)
- MIC ([2]; Escherichia coli, D31, E. coli D31, Control Bacteria Set #1 (same conditions as test isolates), run with Streptococcus viridans group MIC test, read-out: MIC): 2 µg/mL (≈ 2.13 µM)
- MIC ([2]; Escherichia coli, D31, E. coli D31, Control Bacteria Set #2 (Mueller-Hinton Broth), run with Streptococcus pneumoniae MIC test, read-out: MIC): 0.5 µg/mL (≈ 0.534 µM)
- MIC ([2]; Escherichia coli, D31, E. coli D31, Control Bacteria Set #2 (Mueller-Hinton Broth), run with Streptococcus viridans group MIC test, read-out: MIC): 0.5 µg/mL (≈ 0.534 µM)
- MIC ([2]; Escherichia coli, D31, E. coli D31, control bacteria run with Pseudomonas aeruginosa MIC test, read-out: MIC): 0.5 µg/mL (≈ 0.534 µM)
- MIC ([2]; Escherichia coli, D31, E. coli D31, control bacteria run with S. aureus fluoroquinolone-resistant MIC test, read-out: MIC): 1 µg/mL (≈ 1.07 µM)
- MIC ([2]; Escherichia coli, D31, E. coli D31, control bacteria run with S. aureus fluoroquinolone-susceptible MIC test, read-out: MIC): 1 µg/mL (≈ 1.07 µM)
- MIC ([2]; Escherichia coli, D31, E. coli D31, control bacteria run with S. epidermidis fluoroquinolone-resistant MIC test, read-out: MIC): 1 µg/mL (≈ 1.07 µM)
- MIC ([2]; Escherichia coli, D31, E. coli D31, control bacteria run with S. epidermidis fluoroquinolone-susceptible MIC test, read-out: MIC): 1 µg/mL (≈ 1.07 µM)
- MIC ([2]; Escherichia coli, D31, E. coli D31, control bacteria run with Serratia marcescens MIC test, read-out: MIC): 0.5 µg/mL (≈ 0.534 µM)
- MIC ([2]; Escherichia coli, D31, E. coli D31, MIC previously obtained (target MIC), printed in parentheses, read-out: MIC for Control Bacteria within the parentheses): 0.78 µg/mL (≈ 0.833 µM)
- MIC ([2]; Escherichia coli, D31, E. coli D31, read-out: MIC): 0.78 µg/mL (≈ 0.833 µM)
- MIC ([2]; Escherichia coli, D31, control for MIC test HI (Control Bacteria Set #2), read-out: MIC of control bacteria on day of MIC testing): 1 µg/mL
- MIC ([2]; Escherichia coli, D31, control for MIC test MS (Control Bacteria Set #2), read-out: MIC of control bacteria on day of MIC testing): 1 µg/mL
- MIC ([2]; Escherichia coli, D31, control for MIC test PA, read-out: MIC of control bacteria on day of MIC testing): 0.5 µg/mL
- MIC ([2]; Escherichia coli, D31, control for MIC test SA-FQR, read-out: MIC of control bacteria on day of MIC testing): 1 µg/mL
- MIC ([2]; Escherichia coli, D31, control for MIC test SA-FQS, read-out: MIC of control bacteria on day of MIC testing): 1 µg/mL
- MIC ([2]; Escherichia coli, D31, control for MIC test SE-FQR, read-out: MIC of control bacteria on day of MIC testing): 1 µg/mL
- MIC ([2]; Escherichia coli, D31, control for MIC test SE-FQS, read-out: MIC of control bacteria on day of MIC testing): 1 µg/mL
- MIC ([2]; Escherichia coli, D31, control for MIC test SM, read-out: MIC of control bacteria on day of MIC testing): 0.5 µg/mL
- MIC ([2]; Escherichia coli, D31, control for MIC test SP, read-out: MIC of control bacteria on day of MIC testing): 0.5 µg/mL
- MIC ([2]; Escherichia coli, D31, control for MIC test SV, read-out: MIC of control bacteria on day of MIC testing): 0.5 µg/mL
- MIC ([2]; Escherichia coli, D31, reference MIC printed in parentheses beside the day's control value, read-out: MIC for Control Bacteria (within the parentheses)): 0.78 µg/mL (≈ 0.833 µM)
- MIC [3]: 0.78 µg/mL (≈ 0.833 µM)
- MIC ([4]; Haemophilus influenzae, 25 ocular isolates, HTM medium, read-out: Median MIC): 8 µg/mL (≈ 8.54 µM)
- MIC ([4]; Haemophilus influenzae, isolate 1 B1359, read-out: MIC): 8 µg/mL (≈ 8.54 µM)
- MIC ([4]; Haemophilus influenzae, isolate 2 B1346, read-out: MIC): 8 µg/mL (≈ 8.54 µM)
- MIC ([4]; Haemophilus influenzae, isolate 3 B1345, read-out: MIC): 8 µg/mL (≈ 8.54 µM)
- MIC ([4]; Haemophilus influenzae, isolate 4 B1343, read-out: MIC): 8 µg/mL (≈ 8.54 µM)
- MIC ([4]; Haemophilus influenzae, isolate 5 B1338, read-out: MIC): 4 µg/mL (≈ 4.27 µM)
- MIC ([4]; Haemophilus influenzae, isolate 6 B1332, read-out: MIC): 8 µg/mL (≈ 8.54 µM)
- MIC ([4]; Haemophilus influenzae, isolate 7 B1331, read-out: MIC): 8 µg/mL (≈ 8.54 µM)
- MIC ([4]; Haemophilus influenzae, isolate 8 B1330, read-out: MIC): 8 µg/mL (≈ 8.54 µM)
- MIC ([4]; Haemophilus influenzae, isolate 9 B1379, read-out: MIC): 16 µg/mL (≈ 17.1 µM)
- MIC ([4]; Haemophilus influenzae, isolate 10 B1378, read-out: MIC): 8 µg/mL (≈ 8.54 µM)
- MIC ([4]; Haemophilus influenzae, isolate 11 B1313, read-out: MIC): 4 µg/mL (≈ 4.27 µM)
- MIC ([4]; Haemophilus influenzae, isolate 12 B1477, read-out: MIC): 8 µg/mL (≈ 8.54 µM)
- MIC ([4]; Haemophilus influenzae, isolate 13 B1286, read-out: MIC): 8 µg/mL (≈ 8.54 µM)
- MIC ([4]; Haemophilus influenzae, isolate 14 B1282, read-out: MIC): 32 µg/mL (≈ 34.2 µM)
- MIC ([4]; Haemophilus influenzae, isolate 15 B1291, read-out: MIC): 8 µg/mL (≈ 8.54 µM)
- MIC ([4]; Haemophilus influenzae, isolate 16 B1280, read-out: MIC): 8 µg/mL (≈ 8.54 µM)
- MIC ([4]; Haemophilus influenzae, isolate 17 B1279, read-out: MIC): 16 µg/mL (≈ 17.1 µM)
- MIC ([4]; Haemophilus influenzae, isolate 18 B1260, read-out: MIC): 8 µg/mL (≈ 8.54 µM)
- MIC ([4]; Haemophilus influenzae, isolate 19 B1238, read-out: MIC): 2 µg/mL (≈ 2.13 µM)
- MIC ([4]; Haemophilus influenzae, isolate 20 B1209, read-out: MIC): 4 µg/mL (≈ 4.27 µM)
- MIC ([4]; Haemophilus influenzae, isolate 21 B1249, read-out: MIC): 4 µg/mL (≈ 4.27 µM)
- MIC ([4]; Haemophilus influenzae, isolate 22 B1248, read-out: MIC): 8 µg/mL (≈ 8.54 µM)
- MIC ([4]; Haemophilus influenzae, isolate 23 B1244, read-out: MIC): 8 µg/mL (≈ 8.54 µM)
- MIC ([4]; Haemophilus influenzae, isolate 24 B1419, read-out: MIC): 4 µg/mL (≈ 4.27 µM)
- MIC ([4]; Haemophilus influenzae, isolate 25 B1222, read-out: MIC): 8 µg/mL (≈ 8.54 µM)
- MIC50 [4, 5]: 8 µg/mL (≈ 8.54 µM)
- MIC90 [4, 5]: 8 µg/mL (≈ 8.54 µM)
- MIC ([4]; Haemophilus influenzae, n=25 isolates, >64 replaced with 128, read-out: Median MIC): 8 µg/mL (≈ 8.54 µM)
- Range of MICs ([4]; n=25 isolates, >64 replaced with 128): 2 to 32 µg/mL

— US20130065818A1, “Arylamide Compounds And Compositions And Uses Thereof” (POLYMEDIX, priority 2006, published 2013)
